Earlier results in patent US3993756A, “Antilipemic agent containing a soybean oil fraction” (priority 1975, dated 1976).

Key:
[1] = system: cholesterol level in blood serum; settings: for effect on cholesterol level in blood serum: in vivo
[2] = in vivo

Row | Structure (SMILES) | liver or kidney troubles ([1]; 20 to 30 g per day, long periods) | effect on cholesterol level in blood serum [1] | absorption by the body [2]
1 | CC[C@H](CC[C@@H](C)[C@H]1CC[C@H]2[C@@H]3CC=C4C[C@@H](O)CC[C@]4(C)[C@H]3CC[C@]12C)C(C)C [β-sitosterol] | inviting liver or kidney troubles | effective for lowering the cholesterol level in blood serum | low absorption
2 | CC[C@H](/C=C/[C@@H](C)[C@H]1CC[C@H]2[C@@H]3CC=C4C[C@@H](O)CC[C@]4(C)[C@H]3CC[C@]12C)C(C)C [stigmasterol] | – | effective for lowering the cholesterol level in blood serum | –
